{
  "source": "paper PMC11642016",
  "about": "(International Journal of Molecular Sciences, 2024)",
  "key": {"Fadu cells": {"system": "Fadu cells", "test": "CellTiter-Glo luminescent cell viability assay, Fadu"}, "PANC-1 cells": {"system": "PANC-1 cells", "test": "CellTiter-Glo luminescent cell viability assay, PANC-1"}, "[1]": {"test": "CellTiter-Glo luminescent cell viability assay, primary fibroblasts", "conditions": "human, primary skin fibroblasts (non-tumorous), Primer fibroblast Cell viability (% of controll), 72 h, dose–response, individual replicates"}, "[2]": {"system": "non-tumorous primary fibroblast cells", "test": "CellTiter-Glo luminescent cell viability assay, primary fibroblasts", "conditions": "72 h; for Primer fibroblast Cell viability (% of controll): dose–response, individual replicates"}, "[3]": {"conditions": "0.7 μM, 72 h, dose–response, individual replicates"}, "[4]": {"conditions": "1 μM, 72 h, dose–response, individual replicates"}, "[5]": {"conditions": "2.3 μM, 72 h, dose–response, individual replicates"}, "[6]": {"conditions": "3.4 μM, 72 h, dose–response, individual replicates"}, "[7]": {"conditions": "5.1 μM, 72 h, dose–response, individual replicates"}, "[8]": {"conditions": "7.7 μM, 72 h, dose–response, individual replicates"}, "[9]": {"conditions": "17.3 μM, 72 h, dose–response, individual replicates"}, "[10]": {"conditions": "26 μM, 72 h, dose–response, individual replicates"}},
  "note": "Values joined by “and” are separate entries in the source; they are usually repeats but may differ in a detail not shown here. Identical values can stand only once. Like-named read-outs stand apart in the source and are kept apart here.",
  "data": [
    {"smiles": "CNCC#Cc1cccc(CN2C(=O)C3=C(CCN(Cc4ccc(-n5cc(-c6cc(F)cc(F)c6)nn5)cc4)C3)N3CCN=C23)c1", "note": "[43c]", "values": [
      {"measurement": "Fadu Cell viability (% of controll)", "setting": "Fadu cells; [3]", "result": "99 % of controll and 100 % of controll"},
      {"measurement": "Fadu Cell viability (% of controll)", "setting": "Fadu cells; [4]", "result": "102 % of controll and 93 % of controll"},
      {"measurement": "Fadu Cell viability (% of controll)", "setting": "Fadu cells; [5]", "result": "90 % of controll and 79 % of controll"},
      {"measurement": "Fadu Cell viability (% of controll)", "setting": "Fadu cells; [6]", "result": "79 % of controll and 59 % of controll and 42 % of controll"},
      {"measurement": "Fadu Cell viability (% of controll)", "setting": "Fadu cells; [7]", "result": "0 % of controll"},
      {"measurement": "Fadu Cell viability (% of controll)", "setting": "Fadu cells; [8]", "result": "0 % of controll"},
      {"measurement": "Fadu Cell viability (% of controll)", "setting": "Fadu cells; [9]", "result": "0 % of controll"},
      {"measurement": "Fadu Cell viability (% of controll)", "setting": "Fadu cells; [10]", "result": "0 % of controll"},
      {"measurement": "viability at 0.7 µM", "setting": "Fadu cells; Homo sapiens, FaDu, 72 h, read-out: Fadu Cell viability (% of controll), 0.7 μM, 72 h, dose–response, individual replicates", "result": 94, "unit": "%"},
      {"measurement": "viability at 1 µM", "setting": "Fadu cells; Homo sapiens, FaDu, 72 h, read-out: Fadu Cell viability (% of controll), 1 μM, 72 h, dose–response, individual replicates", "result": 97, "unit": "%"},
      {"measurement": "viability at 1.5 µM", "setting": "Fadu cells; Homo sapiens, FaDu, 72 h, read-out: Fadu Cell viability (% of controll), 1.5 μM, 72 h, dose–response, individual replicates", "result": 90, "unit": "%"},
      {"measurement": "viability at 2.3 µM", "setting": "Fadu cells; Homo sapiens, FaDu, 72 h, read-out: Fadu Cell viability (% of controll), 2.3 μM, 72 h, dose–response, individual replicates", "result": 89, "unit": "%"},
      {"measurement": "viability at 5.1 µM", "setting": "Fadu cells; Homo sapiens, FaDu, 72 h, read-out: Fadu Cell viability (% of controll), 5.1 μM, 72 h, dose–response, individual replicates", "result": 0, "unit": "%"},
      {"measurement": "viability at 7.7 µM", "setting": "Fadu cells; Homo sapiens, FaDu, 72 h, read-out: Fadu Cell viability (% of controll), 7.7 μM, 72 h, dose–response, individual replicates", "result": 0, "unit": "%"},
      {"measurement": "viability at 17.3 µM", "setting": "Fadu cells; Homo sapiens, FaDu, 72 h, read-out: Fadu Cell viability (% of controll), 17.3 μM, 72 h, dose–response, individual replicates", "result": 0, "unit": "%"},
      {"measurement": "viability at 26 µM", "setting": "Fadu cells; Homo sapiens, FaDu, 72 h, read-out: Fadu Cell viability (% of controll), 26 μM, 72 h, dose–response, individual replicates", "result": 0, "unit": "%"},
      {"measurement": "IC50", "setting": "Fadu cells; Homo sapiens, FaDu, 72 h, read-out: IC50 Value ± SEM Fadu, 72 h treatment, best-fit values, n = 3", "result": "3.6 ± 0.09", "unit": "µM"},
      {"measurement": "IC50", "setting": "Fadu cells; Homo sapiens, FaDu, read-out: Fadu IC50 values, Mean, mean of independently fitted replicate IC50 values (Supplement S.6)", "result": 3.48, "unit": "µM"},
      {"measurement": "Selectivity Index (SI) Fibroblast/Fadu", "setting": "Fadu cells; ratio of mean best-fit IC50 for primary fibroblasts and best-fit IC50 for Fadu", "result": 1.0},
      {"measurement": "PANC-1 Cell viability (% of controll)", "setting": "PANC-1 cells; [3]", "result": "110 % of controll and 102 % of controll"},
      {"measurement": "PANC-1 Cell viability (% of controll)", "setting": "PANC-1 cells; [4]", "result": "99 % of controll and 105 % of controll"},
      {"measurement": "PANC-1 Cell viability (% of controll)", "setting": "PANC-1 cells; 1.5 μM, 72 h, dose–response, individual replicates", "result": "103 % of controll"},
      {"measurement": "PANC-1 Cell viability (% of controll)", "setting": "PANC-1 cells; [5]", "result": "80 % of controll and 82 % of controll"},
      {"measurement": "PANC-1 Cell viability (% of controll)", "setting": "PANC-1 cells; [6]", "result": "5 % of controll and 8 % of controll"},
      {"measurement": "PANC-1 Cell viability (% of controll)", "setting": "PANC-1 cells; [7]", "result": "0 % of controll"},
      {"measurement": "PANC-1 Cell viability (% of controll)", "setting": "PANC-1 cells; [8]", "result": "0 % of controll"},
      {"measurement": "PANC-1 Cell viability (% of controll)", "setting": "PANC-1 cells; [9]", "result": "0 % of controll"},
      {"measurement": "PANC-1 Cell viability (% of controll)", "setting": "PANC-1 cells; [10]", "result": "0 % of controll"},
      {"measurement": "IC50", "setting": "PANC-1 cells; Homo sapiens, PANC-1, 72 h, read-out: IC50 Value ± SEM PANC-1, 72 h treatment, best-fit values, n = 3", "result": "2.6 ± 0.03", "unit": "µM"},
      {"measurement": "viability at 0.7 µM", "setting": "PANC-1 cells; Homo sapiens, PANC-1, 72 h, read-out: PANC-1 Cell viability (% of controll), 0.7 μM, 72 h, dose–response, individual replicates", "result": 104, "unit": "%"},
      {"measurement": "viability at 1 µM", "setting": "PANC-1 cells; Homo sapiens, PANC-1, 72 h, read-out: PANC-1 Cell viability (% of controll), 1 μM, 72 h, dose–response, individual replicates", "result": 104, "unit": "%"},
      {"measurement": "viability at 1.5 µM", "setting": "PANC-1 cells; Homo sapiens, PANC-1, 72 h, read-out: PANC-1 Cell viability (% of controll), 1.5 μM, 72 h, dose–response, individual replicates", "result": 100, "unit": "%"},
      {"measurement": "viability at 2.3 µM", "setting": "PANC-1 cells; Homo sapiens, PANC-1, 72 h, read-out: PANC-1 Cell viability (% of controll), 2.3 μM, 72 h, dose–response, individual replicates", "result": 89, "unit": "%"},
      {"measurement": "viability at 3.4 µM", "setting": "PANC-1 cells; Homo sapiens, PANC-1, 72 h, read-out: PANC-1 Cell viability (% of controll), 3.4 μM, 72 h, dose–response, individual replicates", "result": 6, "unit": "%"},
      {"measurement": "viability at 5.1 µM", "setting": "PANC-1 cells; Homo sapiens, PANC-1, 72 h, read-out: PANC-1 Cell viability (% of controll), 5.1 μM, 72 h, dose–response, individual replicates", "result": 0, "unit": "%"},
      {"measurement": "viability at 7.7 µM", "setting": "PANC-1 cells; Homo sapiens, PANC-1, 72 h, read-out: PANC-1 Cell viability (% of controll), 7.7 μM, 72 h, dose–response, individual replicates", "result": 0, "unit": "%"},
      {"measurement": "viability at 17.3 µM", "setting": "PANC-1 cells; Homo sapiens, PANC-1, 72 h, read-out: PANC-1 Cell viability (% of controll), 17.3 μM, 72 h, dose–response, individual replicates", "result": 0, "unit": "%"},
      {"measurement": "viability at 26 µM", "setting": "PANC-1 cells; Homo sapiens, PANC-1, 72 h, read-out: PANC-1 Cell viability (% of controll), 26 μM, 72 h, dose–response, individual replicates", "result": 0, "unit": "%"},
      {"measurement": "IC50", "setting": "PANC-1 cells; Homo sapiens, PANC-1, read-out: PANC-1 IC50 values, Mean, mean of independently fitted replicate IC50 values (Supplement S.6)", "result": 2.63, "unit": "µM"},
      {"measurement": "Selectivity Index (SI) Fibroblast/PANC-1", "setting": "PANC-1 cells; ratio of mean best-fit IC50 for primary fibroblasts and best-fit IC50 for PANC-1", "result": 1.4},
      {"measurement": "viability at 72 h, 0.7 µM", "setting": "[1]; 0.7 μM", "result": 91, "unit": "%"},
      {"measurement": "viability at 72 h, 1 µM", "setting": "[1]; 1 μM", "result": 92, "unit": "%"},
      {"measurement": "viability at 72 h, 2.3 µM", "setting": "[1]; 2.3 μM", "result": 103, "unit": "%"},
      {"measurement": "viability at 72 h, 3.4 µM", "setting": "[1]; 3.4 μM", "result": 80, "unit": "%"},
      {"measurement": "viability at 72 h, 5.1 µM", "setting": "[1]; 5.1 μM", "result": 0, "unit": "%"},
      {"measurement": "viability at 72 h, 7.7 µM", "setting": "[1]; 7.7 μM", "result": 0, "unit": "%"},
      {"measurement": "viability at 72 h, 17.3 µM", "setting": "[1]; 17.3 μM", "result": 0, "unit": "%"},
      {"measurement": "viability at 72 h, 26 µM", "setting": "[1]; 26 μM", "result": 0, "unit": "%"},
      {"measurement": "Primer fibroblast Cell viability (% of controll)", "setting": "[2]; 0.7 μM", "result": "98 % of controll and 102 % of controll"},
      {"measurement": "Primer fibroblast Cell viability (% of controll)", "setting": "[2]; 1 μM", "result": "104 % of controll and 106 % of controll"},
      {"measurement": "Primer fibroblast Cell viability (% of controll)", "setting": "[2]; 1.5 μM", "result": "99 % of controll and 95 % of controll and 118 % of controll"},
      {"measurement": "Primer fibroblast Cell viability (% of controll)", "setting": "[2]; 2.3 μM", "result": "97 % of controll and 98 % of controll"},
      {"measurement": "Primer fibroblast Cell viability (% of controll)", "setting": "[2]; 3.4 μM", "result": "95 % of controll and 99 % of controll"},
      {"measurement": "Primer fibroblast Cell viability (% of controll)", "setting": "[2]; 5.1 μM", "result": "0 % of controll"},
      {"measurement": "Primer fibroblast Cell viability (% of controll)", "setting": "[2]; 7.7 μM", "result": "0 % of controll"},
      {"measurement": "Primer fibroblast Cell viability (% of controll)", "setting": "[2]; 17.3 μM", "result": "0 % of controll"},
      {"measurement": "Primer fibroblast Cell viability (% of controll)", "setting": "[2]; 26 μM", "result": "0 % of controll"},
      {"measurement": "IC50", "setting": "[2]; Homo sapiens, Fibroblast, read-out: IC50 Value ± SEM Primary Fibroblast, 72 h treatment, best-fit values, n = 3", "result": "3.7 ± 1.73", "unit": "µM"}
    ]}
  ]
}
